The EC50 is the concentration at which the effect is half-maximal.

Results on 30 compounds are retold here after patent US11377425B1, “Small molecule modulators of IL-17” (LEO Pharma A/S, priority 2018, dated 2022).

The target in the assay is T1, human IL-17AA (Homo sapiens, UniProt Q16552).
T1 construct: host or cells: HEK (human embryonic kidney) cells
T1 sequence (Q16552 24-155): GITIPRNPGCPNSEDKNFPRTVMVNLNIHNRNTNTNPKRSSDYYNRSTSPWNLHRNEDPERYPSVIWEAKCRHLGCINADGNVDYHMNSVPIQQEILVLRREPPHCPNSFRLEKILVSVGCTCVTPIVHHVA
Put plainly: IL-8 release assay in human epithelial keratinocytes adult (HEKa). Format: cell-based. The following applies: HEKa cells, 3 ng/mL HEK-human IL-17AA + 10 ng/mL human TNFalpha; read-out: Rel EC50 IL-8 release assay. The procedure, abridged:
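Adult human epidermal keratinocytes stimulated 68-72 h at 37 °C with 3 ng/mL HEK-derived human IL-17AA plus 10 ng/mL TNF-alpha (final) in the presence of compound; TNF-alpha alone defines 100% inhibition. Secreted IL-8 measured by HTRF as percent of controls; relative IC50/Emax from four-parameter fit (r^2>0.9), cytotoxicity by PrestoBlue.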

As for `Cc1n[nH]c(C)c1-c1ccc(NC(=O)[C@@H](NC(=O)c2ccnn2C(C)CF)C(C2CC2)C2CC2)cc1` (stereo partly drawn) [Example 218, N-[(1S)-1-(dicyclopropylmethyl)-2-[4-(3,5-dimethyl-1H-pyrazol-4-yl)anilino]-2-oxo-ethyl]-2-(2-fluoro-methyl-ethyl)pyrazole-3-carboxamide], the EC50 is less than 100 nM.

In the case of `Cc1n[nH]c(C)c1-c1ccc(NC(=O)[C@@H](NC(=O)c2ccnn2CCC(C)O)C(C2CC2)C2CC2)cc1` (stereo partly drawn) [Example 185, N-[(1S)-1-(dicyclopropylmethyl)-2-[4-(3,5-dimethyl-1H-pyrazol-4-yl)anilino]-2-oxo-ethyl]-2-(3-hydroxybutyl)pyrazole-3-carboxamide], the EC50 was less than 100 nM.

Regarding `Cc1n[nH]c(C)c1-c1ccc(NC(=O)[C@@H](NC(=O)c2ccnn2C(C)CO)C2C3CC4CC(C3)CC2C4)cc1` (single isomer, unassigned) [Example 187], the EC50 is less than 100 nM.

For `Cc1n[nH]c(C)c1-c1ccc(NC(=O)[C@@H](NC(=O)c2ccnn2C)C(C)C(C)C)cc1` (stereo partly drawn) [Example 197], the EC50 lay in the range of 100 to 1000 nM.

As to `Cc1n[nH]c(C)c1-c1ccc(NC(=O)[C@@H](NC(=O)c2cnnn2-c2ccccc2)C2CCCCC2)cc1` [Example 61, N-[(1S)-1-cyclohexyl-2-[4-(3,5-dimethyl-1H-pyrazol-4-yl)anilino]-2-oxo-ethyl]-3-phenyl-triazole-4-carboxamide], the EC50 was in the range of 100 to 1000 nM.

`Cn1cncc1-c1ccc(NC(=O)[C@@H](NC(=O)c2ccnn2C)[C@@H]2CCCc3ccc(Br)cc32)cc1` [Example 344, N-[(1S)-1-[(1R)-7-bromotetralin-1-yl]-2-[4-(3-methylimidazol-4-yl)anilino]-2-oxo-ethyl]-2-methyl-pyrazole-3-carboxamide]: the EC50 is more than 1000 nM.

With `Cn1cncc1-c1ccc(NC(=O)[C@H](Cc2cc(Br)ccc2Cl)NC(=O)c2ccnn2C)cc1` [Example 345, N-[(1S)-1-[(5-bromo-2-chloro-phenyl)methyl]-2-[4-(3-methylimidazol-4-yl)anilino]-2-oxo-ethyl]-2-methyl-pyrazole-3-carboxamide], the EC50 lay in the range of 100 to 1000 nM.

On to `Cc1n[nH]c(CO)c1-c1ccc(NC(=O)[C@@H](NC(=O)c2ccnn2C)C2CCCCC2)cc1` [Example 445, N-[(1S)-1-cyclohexyl-2-[4-[5-(hydroxymethyl)-3-methyl-1H-pyrazol-4-yl]anilino]-2-oxo-ethyl]-2-methyl-pyrazole-3-carboxamide], for which the EC50 lay in the range of 100 to 1000 nM.

As to `Cc1n[nH]c(C)c1-c1ccc(NC(=O)[C@@H](NC(=O)OC2CC2)C2CCCCCC2)cc1` [Example 427, cyclopropyl N-[(1S)-1-cycloheptyl-2-[4-(3,5-dimethyl-1H-pyrazol-4-yl)anilino]-2-oxo-ethyl]carbamate], the EC50 is less than 100 nM.

In the case of `Cc1ncn(C)c1-c1ccc(NC(=O)C(NC(=O)c2ccnn2C)C(C2CC2)C2CC2)cc1` (stereo not drawn) [Example 332, N-[1-(dicyclopropylmethyl)-2-[4-(3,5-dimethylimidazol-4-yl)anilino]-2-oxo-ethyl]-2-methyl-pyrazole-3-carboxamide], the EC50 lay in the range of 100 to 1000 nM.

`Cc1n[nH]c(C)c1-c1ccc(NC(=O)[C@@H](NC(=O)C2(F)CC2)C(C2CC2)C2CC2)cc1O` [Example 415, N-[(1S)-1-(dicyclopropylmethyl)-2-[4-(3,5-dimethyl-1H-pyrazol-4-yl)-3-hydroxy-anilino]-2-oxo-ethyl]-1-fluoro-cyclopropanecarboxamide]: the EC50 fell in the range of 100 to 1000 nM.

`Cc1n[nH]c(C)c1-c1ccc(NC(=O)[C@@H](NC(=O)c2cnnn2C(C)C)[C@H]2CC[C@H](C)CC2)cc1` [Example 148, N-[(1S)-2-[4-(3,5-dimethyl-1H-pyrazol-4-yl)anilino]-1-(4-methylcyclohexyl)-2-.oxo-ethyl]-3-isopropyl-tnazole-4-carboxamide]: the EC50 was less than 100 nM.

With `Cc1n[nH]c(C)c1-c1ccc(NC(=O)[C@@H](NC(=O)c2ccnn2C(C)C)[C@H]2CC[C@H](C)CC2)cc1O` [Example 417, N-[(1S)-2-[4-(3,5-dimethyl-1H-pyrazol-4-yl)-3-hydroxy-anilino]-1-(trans-4-methylcyclohexyl)-2-oxo-ethyl]-2-isopropyl-pyrazole-3-carboxamide], the EC50 is less than 100 nM.

`Cc1n[nH]c(C)c1-c1ccc(NC(=O)[C@@H](NC(=O)c2csc3cnccc23)C2CCCCC2)cc1` [Example 286, N-[(1S)-1-cyclohexyl-2-[4-(3,5-dimethyl-1H-pyrazol-4-yl)anilino]-2-oxo-ethyl]thieno[2,3-c]pyridine-3-carboxamide]: the EC50 was 100 to 1000 nM.

Regarding `Cc1n[nH]c(C)c1-c1ccc(NC(=O)[C@@H](NC(=O)N2CCOCC2)C2CCCCC2)cc1` [Example 478, N-[(1S)-1-cyclohexyl-2-[4-(3,5-dimethyl-1H-pyrazol-4-yl)anilino]-2-oxo-ethyl]morpholine-4-carboxamide], the EC50 was more than 1000 nM.

For `Cc1n[nH]c(C)c1-c1ccc(NC(=O)[C@@H](NC(=O)c2ccnn2C(C)CO)[C@@H]2CC(C)(C)CCC2(F)F)cc1` (single isomer, unassigned) [Example 210], the EC50 is less than 100 nM.

As for `Cc1n[nH]c(C)c1-c1ccc(NC(=O)[C@@H](NC(=O)c2ccnn2C(C)C)[C@H]2CC[C@H](C)CC2)cc1` [Example 127, Trans N-[(1S)-2-[4-(3,5-dimethyl-1H-pyrazol-4-yl)anilino]-1-(4-methylcyclohexyl)-2-oxo-ethyl]-2-isopropyl-pyrazole-3-carboxamide], the EC50 was less than 100 nM.

As for `CC[C@H](C)[C@H](NC(=O)c1ccnn1C)C(=O)Nc1ccc(-c2c(C)n[nH]c2C)cc1` [Example 43, N-[(1S,2S)-1-[[4-(3,5-dimethyl-1H-pyrazol-4-yl)phenyl]carbamoyl]-2-methyl-butyl]-2-methyl-pyrazole-3-carboxamide], the EC50 lay in the range of 100 to 1000 nM.

As for `Cc1n[nH]c(C)c1-c1ccc(NC(=O)[C@@H](NC(=O)c2ccnn2C(C)C)C2C3CC4CC(C3)CC2C4)cc1` (stereo partly drawn) [Example 200, N-[(1S)-1-(2-adamantyl)-2-[4-(3,5-dimethyl-1H-pyrazol-4-yl)anilino]-2-oxo-ethyl]-2-isopropyl-pyrazole-3-carboxamide], the EC50 was less than 100 nM.

Take `Cc1noc(CO)c1-c1ccc(NC(=O)[C@@H](NC(=O)c2ccnn2C(C)C)C(C2CC2)C2CC2)cc1` [Example 409, N-[(1S)-1-(dicyclopropylmethyl)-2-[4-[5-(hydroxymethyl)-3-methyl-isoxazol-4-yl]anilino]-2-oxo-ethyl]-2-isopropyl-pyrazole-3-carboxamide]: the EC50 was 100 to 1000 nM.

As to `Cc1n[nH]c(C)c1-c1ccc(NC(=O)[C@@H](NC(=O)C2(C)CC2)C2CCCCC2)cc1` [Example 57, N-[(1S)-1-cyclohexyl-2-[4-(3,5-dimethyl-1H-pyrazol-4-yl)anilino]-2-oxo-ethyl]-1-methyl-cyclopropanecarboxamide], the EC50 is 100 to 1000 nM.

As to `CCn1nccc1C(=O)N[C@H](C(=O)Nc1ccc(-c2c(C)n[nH]c2C)cc1)C1CCC2(CC1)CC2` [Example 264, N-[(1S)-2-[4-(3,5-dimethyl-1H-pyrazol-4-yl)anilino]-2-oxo-1-spiro[2.5]octan-6-yl-ethyl]-2-ethyl-pyrazole-3-carboxamide], the EC50 lay within 100 to 1000 nM.

Turning to `Cc1n[nH]c(C)c1-c1ccc(NC(=O)[C@@H](NC(=O)c2ncnn2C)C(C2CC2)C2CC2)cc1` [Example 163, N-[(1S)-1-(dicyclopropylmethyl)-2-[4-(3,5-dimethyl-1H-pyrazol-4-yl)anilino]-2-oxo-ethyl]-2-methyl-1,2,4-triazole-3-carboxamide], the EC50 was more than 1000 nM.

`Cc1n[nH]c(C)c1-c1ccc(NC(=O)[C@@H](NC(=O)c2ccnn2C)C2CCC(C)(C)CC2)cc1` [Example 238, N-[(1S)-1-(4,4-dimethylcyclohexyl)-2-[4-(3,5-dimethyl-1H-pyrazol-4-yl)anilino]-2-oxo-ethyl]-2-methyl-pyrazole-3-carboxamide]: the EC50 lay in the range of 100 to 1000 nM.

Regarding `Cc1n[nH]c(C)c1-c1ccc(NC(=O)[C@@H](NC(=O)c2ccnn2[C@@H](C)CO)C(C)C2CCC2)cc1` (single isomer, unassigned) [Example 174], the EC50 lay in the range of 100 to 1000 nM.

Consider `Cc1n[nH]c(C)c1-c1ccc(NC(=O)[C@@H](NC(=O)c2ccnn2C(C)CO)C2C3CC4CC(C3)CC2C4)cc1` (single isomer, unassigned) [Example 188], for which the EC50 is less than 100 nM.

As to `Cc1n[nH]c(C)c1-c1ccc(NC(=O)[C@@H](NC(=O)c2cnnn2C)C(C2CCC2)C2CCC2)cc1` [Example 272, N-[(1S)-1-[di(cyclobutyl)methyl]-2-[4-(3,5-dimethyl-1H-pyrazol-4-yl)anilino]-2-oxo-ethyl]-3-methyl-triazole-4-carboxamide], the EC50 is less than 100 nM.

Take `Cc1n[nH]c(C)c1-c1ccc(NC(=O)[C@@H](NC(=O)c2ccnn2C)[C@@H]2CCc3ccc(C#N)cc32)cc1` [Example 78, N-[(1S)-1-[(1R)-6-cyanoindan-1-yl]-2-[4-(3,5-dimethyl-1H-pyrazol-4-yl)anilino]-2-oxo-ethyl]-2-methyl-pyrazole-3-carboxamide]: the EC50 was more than 1000 nM.

Turning to `Cc1n[nH]c(C)c1-c1ccc(NC(=O)[C@@H](NC(=O)N(C)CCCCO)C2CCCCC2)cc1` [Example 476, (2S)-2-cyclohexyl-N-[4-(3,5-dimethyl-1H-pyrazol-4-yl)phenyl]-2-[[4-hydroxybutyl(methyl)carbamoyl]amino]acetamide], the concentration giving a half-maximal response (EC50) is 100 to 1000 nM.

Consider `Cc1n[nH]c(C)c1-c1ccc(NC(=O)C(NC(=O)c2ccnn2[C@@H](C)CO)C2CCCCCCC2)cc1` (single isomer, unassigned) [Example 150], for which the EC50 is more than 1000 nM.
